Measurements from patent publication US12122804B2, “γ-aminobutyric acid modulator crystal form X, preparation method and application thereof” (SHENZHEN RENTAI […]., priority 2019, dated 2024).

Experiments:
[1] = assessment of data of WO2018039378A1: crystal transformation, XRPD at different temperatures; cited from earlier work
[2] = High-temperature stability of the crystal form (XRPD comparison); assay type: physicochemical; conditions: 60° C., 5 days and 10 days, FIG. 14
Experimental: (§1) The crystal form X prepared in Example 5 is tested as follows.
(2) High-temperature stability: the test sample is placed at a temperature of 60° C. for 5 days and 10 days, respectively, to test the stability of the crystal form.

[3] = Comparison of crystal form X with crystal form K (XRPD, FIG. 17; stability); assay type: physicochemical
[4] = Light stability of the crystal form (XRPD comparison); assay type: physicochemical; conditions: 25° C., 4500 Lux, 5 days and 10 days, FIG. 13
Experimental: as §1
(1) Light stability: the test sample is placed in an environment having a temperature of 25° C. and a light condition of 4500 Lux for 5 days and 10 days, respectively, to test the stability of the crystal form.

[5] = High-humidity stability of the crystal form (XRPD comparison); assay type: physicochemical; conditions: 92.5% RH, 25° C., 5 days and 10 days, FIG. 16
Experimental: as §1
(4) High-humidity stability: the test sample is placed in an environment having a humidity of 92.5% RH and a temperature of 25° C. for 5 days and 10 days, respectively, to test the stability of the crystal form.

[6] = Accelerated stability of the crystal form (XRPD comparison); assay type: physicochemical; conditions: 75% RH, 40° C., 5 days and 10 days, FIG. 15
Experimental: as §1
(3) Accelerated stability: the test sample is placed in an environment having a humidity of 75% RH and a temperature of 40° C. for 5 days and 10 days, respectively, to test the stability of the crystal form.

Row | Structure (SMILES) | Crystal form stability (suitability as medicinal crystal form) [1] | High-temperature stability of the crystal form [2] | Stability relative to crystal form K [3] | Light stability of the crystal form [4] | High-humidity stability of the crystal form [5] | Accelerated stability of the crystal form [6]
1 | C[C@@]1(O)CC[C@H]2[C@H](CC[C@@H]3[C@@H]2CC[C@]2(C)[C@@H](C(=O)Cn4cc(C#N)cn4)CC[C@@H]32)C1 [crystal form A, 3α-hydroxy-3β-methyl-21-(4-cyano-1H-pyrazol-1′-yl)-19-nor-5β-pregnan-20-one] | unstable | – | – | – | – | –
2 | C[C@@]1(O)CC[C@H]2[C@H](CC[C@@H]3[C@@H]2CC[C@]2(C)[C@@H](C(=O)Cn4cc(C#N)cn4)CC[C@@H]32)C1 [crystal form X, 3α-hydroxy-3β-methyl-21-(4-cyano-1H-pyrazol-1′-yl)-19-nor-5β-pregnan-20-one] | – | good high-temperature stability | better stability than the crystal form K | good light stability | good high-humidity stability | good accelerated stability
